Test results: PMC2678990, “Stilbene glycosides are natural product inhibitors of FGF-2-induced angiogenesis” (BMC Cell Biology, 2009)

Columns and labels:
[1] = system: BAEC; experiment: EGF-induced proliferation; format: cell-based, bovine; conditions: EGF 75 ng/ml, 72 h, NS = inhibition less than 50%
Method: (§1) Cells were seeded in triplicate at a concentration of 6.0 × 10^5/ml, in 2 ml of complete medium in 6-well plates. […] Growth factors, FGF-2 (25 ng/ml), EGF (75 ng/ml) and VEGF (10 ng/ml) and test compounds at different concentration were added and cells incubated for a further 72 h. Control wells were treated with 5 μl DMSO. Concentration ranges of test compounds and pre-incubation times were based on pilot studies. After 72 h, cells were washed in PBS, detached in 0.05%w/v trypsin in PBS, and counted on a Coulter counter (Coulter Electronics, Hialeah, FL) set to a threshold of 30 μm. Experiments were performed in triplicate and repeated at least twice.

[2] = system: BAEC; experiment: FGF-2-induced tube formation in Matrigel; format: cell-based, bovine; conditions: Matrigel; for IC50: 24 h, FGF-2 25 ng/ml
Method: Cells (1.0 × 10^6/ml) were mixed with an equal volume of Matrigel (Becton -Dickinson, Oxford, UK; prepared according to the supplier's instructions) at 4°C. Aliquots (80 μl) were added to the wells of a 48-well plate and allowed to polymerise (1 h) then 500 μl of 15% FCS containing FGF-2 (25 ng/ml; or other growth factors), with or without test compounds was added. The cells were incubated for 24 h at 37°C then fixed in 4% paraformaldehyde (5 min), washed in cold ethanol and the plate air dried. Cells were stained with Geimsa (30 s), air dried and photographed. Ten random fields were selected and the number of closed tubes counted.

[3] = system: BAEC; experiment: Regression of established tubular networks; format: cell-based, bovine; conditions: Bos taurus, established FGF-2 tubular network, 24 h
Method: Tube regression under the influence of the test compounds was also investigated. Cell suspensions were mixed with Matrigel supplemented with FGF-2 (25 ng/ml) in 15% FCS as described above.

[4] = system: human dermal microvascular endothelial cells (HDMEC); experiment: Proliferation without growth factors (15% FBS); format: cell-based
Method: as §1, with “Growth factors, FGF-2 (25 ng/ml), EGF (75 ng/ml) and VEGF (10 ng/ml) and test compounds at different concentration were added and cells incubated for a further 72 h.” left out

[5] = system: bovine aortic endothelial cells (BAEC); experiment: Proliferation without growth factors (15% FBS); format: cell-based
Method: as §1, with “Growth factors, FGF-2 (25 ng/ml), EGF (75 ng/ml) and VEGF (10 ng/ml) and test compounds at different concentration were added and cells incubated for a further 72 h.” left out

[6] = system: HDMEC; experiment: EGF-induced proliferation; format: cell-based, human; conditions: EGF 75 ng/ml, 72 h, NS = inhibition less than 50%
Method: as §1

[7] = system: VEGF receptor; experiment: ELISA binding assay of VEGF to soluble receptor; conditions: results not shown
Method: (§2) Competition between growth factors, their cell surface receptors and test compounds was assessed in an ELISA assay as described by. A 96-well plate was coated overnight with 2 μg/ml of the soluble receptors (FGFR-1 or -2 and VEGFR-1 or -2) and blocked with 1% BSA in PBS containing 0.05% Tween-20. The test compound and FGF-2 or VEGF were pre-mixed for 2 h and added to the plate and incubated for 2 h. The plate was washed (× 3 with PBS-Tween-20) and incubated with anti-FGF-2 IgG (1:500 in PBS-Tween-20) or anti-VEGF IgG (!:250 in PBS-Tween-20) for 45 min, washed and incubated with horseradish peroxidase conjugated goat anti-IgG (Santa Cruz, 1:1000) for a further 45 min. After washing (× 3), ABTS peroxidase substrate was added and the absorbance read at 405 nm. IC50 values were calculated from the data using the EZ-Fit enzyme kinetic software (Perella Scientific Inc., Amherst, USA).

[8] = system: HDMEC; experiment: VEGF-induced proliferation; format: cell-based, human; conditions: 72 h, NS = inhibition less than 50%
Method: as §1

[9] = system: BAEC; experiment: FGF-2-induced migration in wound healing model; format: cell-based, bovine; conditions: Bos taurus, FGF-2 25 ng/ml, 18 h
Method: Cells (6 × 10^4/ml) were added to a Thermanox cover slip in a 24-well plate in complete medium and incubated for 24–48 h. When confluent, the medium was replaced with DMEM containing 0.1% FCS and incubated for a further 48 h. Cover slips were washed (PBS, × 3), wounded with a sterile razor to produce a straight edged cut and washed in PBS to remove dislodged cells. Cover slips were added to a fresh 24-well plate in 0.1% FCS and incubated with FGF-2 (or other growth factors) and a range of concentrations of test compounds for 18 h. Under these conditions, there was negligible proliferation but measurable migration. Slides were fixed in ethanol (100%), stained with methylene blue and photographed. For each slide, 10 fields of view (2 mm × 1.45 mm) were counted at random. Each experiment was performed in triplicate and at least twice.

[10] = system: T1, FGFR-2 (Homo sapiens); experiment: ELISA binding assay of FGF-2 to soluble receptor; conditions: added together with FGF-2, no pre-incubation
T1 construct: coated overnight with 2 μg/ml of the soluble receptors (FGFR-1 or -2 and VEGFR-1 or -2); purchased Santa Cruz Biotechnology (receptor); R&D Systems (FGF-2)
T1 sequence (P09038 143-288): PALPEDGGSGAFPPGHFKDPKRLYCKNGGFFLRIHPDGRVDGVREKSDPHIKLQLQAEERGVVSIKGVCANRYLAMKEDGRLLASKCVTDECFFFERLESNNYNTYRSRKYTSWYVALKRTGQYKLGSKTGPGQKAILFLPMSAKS
Method: (§3) Figure 8 The effect of increasing concentrations of compound 1 on FGF-2 binding to FGFR-1 and -2. The soluble receptor was coated onto the wells of a 96-well plate and blocked with 1% BSA. […] After 2 h the plate was washed and incubated with antibodies to the growth factor, then peroxidase-conjugated IgG for 45 min. Peroxidase substrate was added and the absorbance read at 405 nm (se below for detail).
as §2, with “The test compound and FGF-2 or VEGF were pre-mixed for 2 h and added to the plate and incubated for 2 h.” left out

[11] = system: T2, FGFR-1 (Homo sapiens); experiment: ELISA binding assay of FGF-2 to soluble receptor; conditions: added together with FGF-2, no pre-incubation
T2 construct: coated overnight with 2 μg/ml of the soluble receptors (FGFR-1 or -2 and VEGFR-1 or -2); purchased Santa Cruz Biotechnology (receptor); R&D Systems (FGF-2)
T2 sequence (P09038 143-288): as above
Method: as §3
as §2, with “The test compound and FGF-2 or VEGF were pre-mixed for 2 h and added to the plate and incubated for 2 h.” left out

- IC50 ([2]; Bos taurus): 11.1 ± 0.28 µM
- IC50 [2]: 18.2 ± 0.65 µM
- IC50 [3]: 40 ± 0.2 µM
- Effect on binding to the VEGF receptor [7]: did not bind
- IC50 [9]: 41.8 ± 0.95 µM
- Effect on FGF-2 binding to FGFR-2 when added with FGF-2 [10]: no significant inhibitory effect
- Effect on FGF-2 binding to FGFR-1 when added with FGF-2 [11]: no significant inhibitory effect
SMILES: COc1cc(C=Cc2ccc(O)cc2)cc(OC2OC(COC3OC(C)C(O)C(O)C3O)C(O)C(O)C2OC2OC(C)C(O)C(O)C2O)c1 (stereo not drawn) [Compound 1]
- IC50 ([1]; Bos taurus): > 71.5 µM
- EGF-induced proliferation, IC50 [1]: no significant inhibitory effect
- Effect on tube formation in the absence of FGF-2 ([2]; without FGF-2): no inhibitory effect
- Effect on growth in the absence of growth factors ([4]; 1.4–71.5 μM): no significant effect
- IC50 ([4]; Homo sapiens, Endothelial cell, NS = overall inhibition less than 50%): > 71.5 µM
- Effect on growth in the absence of growth factors ([5]; 1.4–71.5 μM): no significant effect
- IC50 ([5]; Bos taurus, NS = overall inhibition less than 50%): > 71.5 µM
- EGF-induced proliferation, IC50 [6]: no significant inhibitory effect
- IC50 ([6]; Homo sapiens): > 71.5 µM
- VEGF-induced proliferation, IC50 [8]: no significant inhibitory effect
- IC50 ([8]; Homo sapiens): > 71.5 µM
